The supplement of paper PMC10307832

What was measured:
Assay in all cases: relative viability (nuclei count vs DMSO), 5 days (fraction); higher = more cells survive
[1] = compound: C1COCCN1C2=NC(=NC3=C2OC4=C3C=CC=N4)C5=CC(=CC=C5)NC(=O)C6=CN=C(C=C6)N + COc1cc2c(Oc3ccc(NC(=O)C4(C(=O)Nc5ccc(F)cc5)CC4)cc3F)ccnc2cc1OCCCN1CCOCC1 [Foretinib] (partner 0.25 µM)
Summary of the method: (§1)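 Relative viability equals treated-well nuclei counts divided by vehicle-well nuclei counts. Counts came from 4× images of lung cancer cell lines grown in 1536-well plates for 5 days after pin-tool dosing on the day after seeding. Dosing used one drug alone or a fixed anchor-drug dose plus five library-drug doses (not always all listed) in √10 steps, and values are medians of duplicate plates.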

[2] = compound: C1COCCN1C2=NC(=NC3=C2OC4=C3C=CC=N4)C5=CC(=CC=C5)NC(=O)C6=CN=C(C=C6)N + C[C@]1(O)C[C@@H](c2nc(-c3ccc4ccc(-c5ccccc5)nc4c3)c3c(N)nccn32)C1 [Linsitinib] (partner 1 µM)
Summary of the method: as §1

Entinostat + Linsitinib = compound: Nc1ccccc1NC(=O)c1ccc(CNC(=O)OCc2cccnc2)cc1 [Entinostat] + C[C@]1(O)C[C@@H](c2nc(-c3ccc4ccc(-c5ccccc5)nc4c3)c3c(N)nccn32)C1 [Linsitinib] (partner 1 µM)
Summary of the method: as §1

Entinostat + Tozasertib = compound: Nc1ccccc1NC(=O)c1ccc(CNC(=O)OCc2cccnc2)cc1 [Entinostat] + Cc1cc(Nc2cc(N3CCN(C)CC3)nc(Sc3ccc(NC(=O)C4CC4)cc3)n2)n[nH]1 [Tozasertib] (partner 0.1 µM)
Summary of the method: as §1

Cell Line | relative viability ([1]; first compound 0.02 µM) | relative viability ([1]; first compound 0.06325 µM) | relative viability ([1]; first compound 0.2 µM) | relative viability ([1]; first compound 0.6325 µM) | relative viability ([1]; first compound 2 µM) | relative viability ([2]; first compound 0.02 µM) | relative viability ([2]; first compound 0.06325 µM) | relative viability ([2]; first compound 0.2 µM) | relative viability ([2]; first compound 0.6325 µM) | relative viability ([2]; first compound 2 µM) | relative viability (Entinostat + Linsitinib; first compound 0.02 µM) | relative viability (Entinostat + Linsitinib; first compound 0.06325 µM) | relative viability (Entinostat + Linsitinib; first compound 0.2 µM) | relative viability (Entinostat + Linsitinib; first compound 0.6325 µM) | relative viability (Entinostat + Linsitinib; first compound 2 µM) | relative viability (Entinostat + Tozasertib; first compound 0.02 µM) | relative viability (Entinostat + Tozasertib; first compound 0.06325 µM) | relative viability (Entinostat + Tozasertib; first compound 0.2 µM) | relative viability (Entinostat + Tozasertib; first compound 0.6325 µM) | relative viability (Entinostat + Tozasertib; first compound 2 µM)
Calu-6 | 1.12 | 0.912 | 0.987 | 0.851 | 0.648 | 0.943 | 1.14 | 0.975 | 0.9 | 0.527 | 0.859 | 0.961 | 0.852 | 0.739 | 0.502 | – | – | – | – | –
ChaGo-K-1 | 0.971 | 1.04 | 0.955 | 0.832 | 0.582 | – | – | – | – | – | – | – | – | – | – | 0.256 | 0.227 | 0.211 | 0.197 | 0.19
EBC-1 | 0.115 | 0.0996 | 0.111 | 0.102 | 0.0879 | 0.826 | 1.07 | 0.875 | 0.847 | 0.58 | 0.934 | 0.94 | 0.811 | 0.22 | 0.122 | – | – | – | – | –
EKVX | 0.97 | 1.01 | 0.773 | 0.751 | 0.339 | 1.1 | 1.02 | 1.1 | 0.972 | 0.642 | 0.896 | 1.01 | 0.79 | 0.663 | 0.438 | 0.384 | 0.414 | 0.323 | 0.234 | 0.192
EMC-BAC-2 | 0.991 | 1.07 | 1.01 | 0.902 | 0.766 | 0.815 | 0.83 | 0.749 | 0.762 | 0.491 | 0.837 | 0.915 | 0.983 | 0.731 | 0.487 | 0.302 | 0.254 | 0.228 | 0.17 | 0.229
EPLC-272H | 0.648 | 0.776 | 0.66 | 0.542 | 0.476 | 1.27 | 1.07 | 1.12 | 1.01 | 0.721 | 1.2 | 1.22 | 0.697 | 0.627 | 0.405 | 0.265 | 0.291 | 0.277 | 0.154 | 0.197
H3255 | 0.985 | 0.97 | 0.865 | 0.754 | 0.718 | 0.908 | 1.09 | 1.04 | 0.949 | 0.702 | 0.892 | 0.87 | 0.765 | 0.507 | 0.304 | 0.48 | 0.468 | 0.503 | 0.315 | 0.204
HARA | 0.953 | 1.11 | 1.09 | 0.882 | 0.528 | 1.15 | 1.04 | 1.02 | 0.783 | 0.361 | 0.917 | 0.938 | 0.938 | 0.793 | 0.577 | 0.121 | 0.123 | 0.138 | 0.117 | 0.0945
HCC-15 | 1.05 | 1.15 | 1.06 | 0.947 | 0.677 | 0.871 | 0.926 | 0.813 | 0.832 | 0.634 | 0.82 | 0.8 | 0.713 | 0.546 | 0.319 | 0.306 | 0.346 | 0.258 | 0.0932 | 0.0635
